Assay results published in patent US20130039905A1 (Neurotec Pharma, S.L., priority 2010, published 2013).
Entries after “also recorded” stand apart in the source; their conditions may differ.

Assays:
[1] = Glycemia in mice receiving daily oral diazoxide (Example 1); assay type: in vivo; conditions: 30 days, female C57BL/6J mice, blood glucose at time 0 and 60 minutes
Description: Female C57BL/6J mice, 11 weeks of age, were purchased from Charles River and maintained on a 12:12 hr light:dark cycle, with standard chow and water freely available. The experiments began at 11:00 h. […] From day 4 on, glucose blood levels were measured every 3-4 days during the 30-day treatment period. Measurements were performed immediately before drug administration (time 0) and at 60 minutes. Blood samples were obtained from the saphenous vein and glucose levels were determined using a glucometer and glucose test strips (Accu-Chek® Aviva, Roche Diagnostics, Indianapolis, Ind, USA). For each group, hyperglycemia was considered when glucose concentration was equal or higher than 176 mg/dl.

EAE mice [2] = assay: EAE in mice, treatment starting at immunization (pre-treatment, Example 2); assay type: in vivo; conditions: for global mean decrease of the clinical score (Area Under the Curve vs placebo): pre-treatment
[3] = test system: bupivacaine-induced actute CNS toxicity; conditions: 100 mg/kg (300 mg/m^2), mice; cited from earlier work
EAE mice [4] = assay: EAE in mice, treatment after first clinical signs (post-treatment, Example 3); assay type: in vivo; conditions: for global mean decrease of the clinical score (Area Under the Curve vs placebo): post-treatment
Description: Experimental Autoimmune Encephalomyelitis induction and clinic scoring of mice were performed as described on Example 2.
The day scoring a value of 1, every mouse was randomly assigned to a diazoxide-treatment or placebo-control group. The period of treatment was 15 days and the drug was dissolved in a vehicle consisting in 98.5% water plus 1.5% of dimetyl sulfoxide (Sigma-Aldrich, St. Louis, Mo., USA) and was administered daily orally by gavage (p.o.), in a dose volume of 200 μl. […] One placebo-control group received a daily oral administration of vehicle.
The non-parametric Mann-Whitney-Wilcoxon test was performed to establish the differences between the treated groups and control group for each day. p<0.05 was considered as significant. To test the global effect of the treatment along all the study, the Area Under the Curve of treated groups and control group was compared using One-Way-Anova test. p<0.05 was considered as significant.

CC1=NS(=O)(=O)c2cc(Cl)ccc2N1 [Diazoxide]
hyperglycemia (glucose concentration equal or higher than 176 mg/dl) ([1]; 0.05 mg/kg (0,15 mg/m^2) daily p.o.): none of the two doses tested in this study produced hyperglycemia
hyperglycemia (glucose concentration equal or higher than 176 mg/dl) ([1]; 1 mg/kg (3 mg/m^2) daily p.o.): none of the two doses tested in this study produced hyperglycemia
global mean decrease of the clinical score (Area Under the Curve vs placebo) (EAE mice [2]; 0,8 mg/Kg (2.4 mg/m^2) daily p.o., p<0,01): 26%
daily EAE clinical score compared to control group (EAE mice [2]; 0.025 mg/kg (0.075 mg/m^2) daily p.o. for 30 days from immunization): significant difference at days fourteen, fifteen, eighteen and nineteen
daily EAE clinical score compared to placebo control group (EAE mice [2]; 0.8 mg/kg (2.4 mg/m^2) daily p.o. for 30 days from immunization): significantly lower at day thirteen and from day twenty-five to thirty; also recorded: significant in seven non-consecutive days
global mean decrease of the clinical score (Area Under the Curve vs placebo) (EAE mice [2]; 0,025 mg/Kg (0.075 mg/m^2) daily p.o., p<0.05): 26%
mean value for clinical score compared to control group after day 13 post-immunization (EAE mice [2]; all dosages tested (0.025 and 0.8 mg/kg) daily p.o. from immunization): better mean value for clinical score
period of latency of the convulsions caused by bupivacaine [3]: increasing the period of latency of the convulsions
daily EAE clinical score compared to control group (EAE mice [4]; 0.05 mg/kg (0.15 mg/m^2) daily p.o. for 15 days from score 1): significant difference at the final phase of the study (day 15)
global mean decrease of the clinical score (Area Under the Curve vs placebo) (EAE mice [4]; 0.05 mg/kg (0.15 mg/m^2) daily p.o.): 19%
daily EAE clinical score compared to placebo-control group (EAE mice [4]; 0.8 mg/kg (2.4 mg/m^2) daily p.o. for 15 days from score 1, day six to day fifteen): all clinical values were significantly lower; also recorded: significant reduction of the daily clinical score in ten consecutive days
global mean decrease of the clinical score (Area Under the Curve vs placebo) (EAE mice [4]; 1 mg/kg (3 mg/m^2) daily p.o., p<0.05): 40%
daily EAE clinical score compared to control group (EAE mice [4]; 4 mg/kg (12 mg/m^2) daily p.o. for 15 days from score 1): significant reduction in the clinical score at day four and at day five
global mean decrease of the clinical score (Area Under the Curve vs placebo) (EAE mice [4]; 4 mg/kg (12 mg/m^2) daily p.o.): 15%
morbidity and mean daily clinical score compared to placebo-control group (EAE mice [4]; 0.05, 0.8 and 1 mg/kg daily p.o. for 15 days from score 1): significant reduction of morbidity and of the mean daily clinical score
daily EAE clinical score compared to placebo-control group (EAE mice [4]; 1 lmg/kg (3 mg/m^2) daily p.o. for 15 days from score 1, day four to day fifteen): significantly lower from day four
